Laboratory results published in patent US20170240535A1, “HDAC1/2 INHIBITORS FOR THE TREATMENT OF NEURODEGENERATIVE AND/OR COGNITIVE DISORDERS” (Regenacy Pharmaceuticals, LLC, priority 2016, published 2017).

Columns and labels:
HDAC1 = target: T1, HDAC1 (Homo sapiens, UniProt Q13547); test: HDAC enzyme assay, HDAC1; format: biochemical; details: enzyme and compound incubated 24 hours at room temperature
T1 construct: purchased BPS Biosciences
Procedure: (§1) Compounds for testing were diluted in DMSO to 50 fold the final concentration and a ten point three fold dilution series was made. The compounds were diluted in assay buffer (50 mM HEPES, pH 7.4, 100 mM KCl, 0.001% Tween-20, 0.05% BSA, 20 μM TCEP) to 6 fold their final concentration. The HDAC enzymes (purchased from BPS Biosciences) were diluted to 1.5 fold their final concentration in assay buffer. The tripeptide substrate and trypsin at 0.05 μM final concentration were diluted in assay buffer at 6 fold their final concentration. The final enzyme concentrations used in these assays were 3.3 ng/ml (HDAC1), 0.2 ng/ml (HDAC2) and 0.08 ng/ml (HDAC3). The final substrate concentrations used were 16 μM (HDAC1), 10 μM (HDAC2) and 17 μM (HDAC3). Five μl of compound and 20 μl of enzyme were added to wells of a black, opaque 384 well plate in duplicate. Enzyme and compound were incubated together at room temperature for 24 hours. Five μl of substrate was added to each well, the plate was shaken for 60 seconds and placed into a Victor 2 microtiter plate reader. The development of fluorescence was monitored for 60 min and the linear rate of the reaction was calculated. The IC50 was determined using Graph Pad Prism by a four parameter curve fit.

HDAC2 = target: T2, HDAC2 (Homo sapiens, UniProt Q92769); test: HDAC enzyme assay, HDAC2; format: biochemical; details: enzyme and compound incubated 24 hours at room temperature
T2 construct: purchased BPS Biosciences
T2 sequence (Q92769 whole entry): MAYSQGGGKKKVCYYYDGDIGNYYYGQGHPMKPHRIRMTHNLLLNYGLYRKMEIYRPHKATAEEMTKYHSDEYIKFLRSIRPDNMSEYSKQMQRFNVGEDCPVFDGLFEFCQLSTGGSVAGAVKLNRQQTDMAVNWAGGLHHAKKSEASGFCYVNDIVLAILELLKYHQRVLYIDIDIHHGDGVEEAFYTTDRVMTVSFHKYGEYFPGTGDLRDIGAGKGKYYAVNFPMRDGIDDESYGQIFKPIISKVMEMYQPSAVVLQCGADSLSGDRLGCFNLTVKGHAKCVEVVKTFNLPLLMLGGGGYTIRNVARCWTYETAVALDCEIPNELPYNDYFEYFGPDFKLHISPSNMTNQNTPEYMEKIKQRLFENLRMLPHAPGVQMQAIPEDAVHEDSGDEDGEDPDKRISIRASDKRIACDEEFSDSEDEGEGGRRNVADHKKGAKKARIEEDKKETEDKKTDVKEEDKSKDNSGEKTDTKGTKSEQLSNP
Procedure: as §1

HDAC3 = target: T3, HDAC3 (Homo sapiens, UniProt O15379); test: HDAC enzyme assay, HDAC3; format: biochemical; details: enzyme and compound incubated 24 hours at room temperature
T3 construct: purchased BPS Biosciences
T3 sequence (O15379 whole entry): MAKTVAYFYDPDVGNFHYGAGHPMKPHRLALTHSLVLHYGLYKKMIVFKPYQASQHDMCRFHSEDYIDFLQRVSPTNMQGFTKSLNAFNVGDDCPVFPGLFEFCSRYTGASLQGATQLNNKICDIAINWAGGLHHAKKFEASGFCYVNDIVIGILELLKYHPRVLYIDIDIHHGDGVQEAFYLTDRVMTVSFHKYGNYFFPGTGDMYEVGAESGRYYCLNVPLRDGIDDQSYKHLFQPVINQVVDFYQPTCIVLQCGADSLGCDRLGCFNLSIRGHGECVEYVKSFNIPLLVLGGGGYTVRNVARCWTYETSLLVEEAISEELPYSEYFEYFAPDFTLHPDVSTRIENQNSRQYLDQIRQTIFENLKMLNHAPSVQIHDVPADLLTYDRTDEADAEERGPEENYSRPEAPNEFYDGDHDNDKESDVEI
T3 sequence (Q9Y618 395-489 partner limits assumed): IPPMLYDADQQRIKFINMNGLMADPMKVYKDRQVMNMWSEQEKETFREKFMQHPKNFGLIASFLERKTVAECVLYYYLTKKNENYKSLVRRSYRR
Procedure: as §1

aged mice = test: Morris Water Maze, young and aged mice; format: in vivo
Procedure: The ability of HDAC1/2 inhibitor Compound 1 to improve cognitive deficits in aged mice was tested by InterVivo Solutions (Toronto, Canada). Young (3 months old) and aged (18 months old) mice were compared in a Morris Water Maze to measure differences in learning and memory.
Mice were first placed in a pool of water and trained to swim to a visible flagged platform (the cued task). The mice received 3 trails per day for 5 days and the time it took for the mice to find the platform was timed. Young mice and aged mice performed equally well at this task, indicating there was no difference in swimming speed between the two cohorts of mice.
Next, mice were trained in a place task, in which the platform is submerged and hidden with flags to indicate the fixed location of the platform. The mice were trained for 4 days with 3 trials per day.

[1] = young mice (3 months old), 10 mg/kg/day, 4 weeks

T1 sequence (Q13547 whole entry): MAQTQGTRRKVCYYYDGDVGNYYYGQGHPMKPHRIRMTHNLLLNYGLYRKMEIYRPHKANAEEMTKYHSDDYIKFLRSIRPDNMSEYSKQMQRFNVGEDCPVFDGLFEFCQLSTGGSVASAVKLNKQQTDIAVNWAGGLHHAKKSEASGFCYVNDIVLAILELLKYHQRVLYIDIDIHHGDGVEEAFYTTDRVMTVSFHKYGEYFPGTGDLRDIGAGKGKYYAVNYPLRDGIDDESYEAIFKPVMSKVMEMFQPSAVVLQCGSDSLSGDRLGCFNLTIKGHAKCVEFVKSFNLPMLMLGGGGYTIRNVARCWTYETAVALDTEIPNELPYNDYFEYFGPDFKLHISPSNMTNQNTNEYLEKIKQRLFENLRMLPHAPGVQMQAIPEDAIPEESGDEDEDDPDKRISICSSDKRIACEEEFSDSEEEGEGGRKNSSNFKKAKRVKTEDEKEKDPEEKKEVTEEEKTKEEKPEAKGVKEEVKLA

**Q.** With `Nc1ccc(-c2ccccc2)cc1NC(=O)c1cc2ccc(N3CCNCC3)cc2cn1` [Compound 1] as the molecule, how does the IC50 (HDAC1) read?
**A.** The IC50 was 5 nM.

**Q.** What about the IC50 (HDAC2) of the same molecule?
**A.** Its IC50 is 13 nM.

**Q.** And the IC50 (HDAC3)?
**A.** Its IC50 is 84 nM.

**Q.** And the “learning rate in place task” value (aged mice; aged mice (18 months old), 10 mg/kg/day, 4 weeks)?
**A.** The value was “learn at a rate greater than the young untreated cohort”.

**Q.** What about the “performance in place test vs corresponding untreated mice” value (aged mice; young and aged mice, 10 mg/kg/day for 4 weeks) of the same molecule?
**A.** The value was “perform better in the place test than the corresponding untreated mice”.

**Q.** And the “learning rate in place task” value (aged mice; [1])?
**A.** Its value is “dramatic improvement in learning rate”.

**Q.** What about the “reduction in escape latency as compared to untreated mice, place task” value (aged mice; [1]) of the same molecule?
**A.** The value was 25%.
